# What was measured:
# rat KCC2 = molecular target: T1, rat KCC2 (Rattus norvegicus, UniProt Q63633); details: rat KCC2 in HEK293 cells; read-out: chloride affinity (Km) reported for rKCC2; cited from earlier work
# T1 construct: host or cells: HEK293 cells
# T1 sequence (Q63633 1-1116 isoform Q63633-2): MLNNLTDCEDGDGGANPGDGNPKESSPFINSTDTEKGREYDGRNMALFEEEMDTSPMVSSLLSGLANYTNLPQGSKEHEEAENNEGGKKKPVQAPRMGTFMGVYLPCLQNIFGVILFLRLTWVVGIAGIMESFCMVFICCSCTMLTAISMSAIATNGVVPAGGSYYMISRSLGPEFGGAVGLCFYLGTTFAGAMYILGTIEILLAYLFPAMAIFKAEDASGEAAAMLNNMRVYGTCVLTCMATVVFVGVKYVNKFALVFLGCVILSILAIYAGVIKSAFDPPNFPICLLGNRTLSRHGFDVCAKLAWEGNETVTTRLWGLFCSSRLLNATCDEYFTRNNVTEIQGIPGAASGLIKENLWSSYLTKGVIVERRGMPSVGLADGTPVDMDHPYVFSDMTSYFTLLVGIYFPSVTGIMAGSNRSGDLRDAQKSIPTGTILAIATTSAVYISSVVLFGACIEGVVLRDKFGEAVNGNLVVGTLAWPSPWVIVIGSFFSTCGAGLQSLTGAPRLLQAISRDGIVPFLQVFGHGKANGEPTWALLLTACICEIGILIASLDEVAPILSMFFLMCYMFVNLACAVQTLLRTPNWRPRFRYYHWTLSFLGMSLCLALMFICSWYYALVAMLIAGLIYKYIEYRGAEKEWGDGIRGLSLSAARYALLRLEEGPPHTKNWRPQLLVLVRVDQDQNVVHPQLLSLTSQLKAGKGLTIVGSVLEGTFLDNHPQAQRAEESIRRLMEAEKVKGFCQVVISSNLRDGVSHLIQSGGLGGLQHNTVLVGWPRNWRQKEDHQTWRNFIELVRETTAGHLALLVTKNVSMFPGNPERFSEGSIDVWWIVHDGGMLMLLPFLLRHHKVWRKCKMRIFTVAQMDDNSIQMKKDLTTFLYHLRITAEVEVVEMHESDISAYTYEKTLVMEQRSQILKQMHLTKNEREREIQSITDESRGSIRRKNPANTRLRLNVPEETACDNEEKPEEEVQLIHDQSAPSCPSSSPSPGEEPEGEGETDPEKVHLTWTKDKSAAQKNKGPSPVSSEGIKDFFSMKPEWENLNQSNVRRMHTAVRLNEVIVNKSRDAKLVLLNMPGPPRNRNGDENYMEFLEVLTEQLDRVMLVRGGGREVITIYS
# hKCC3b = molecular target: T2, hKCC3b (Homo sapiens, UniProt Q9UHW9); type: cell-based; details: 2 mM furosemide; 100 nM calyculin A
# T2 construct: expressed in transfected cells; host or cells: Xenopus oocytes microinjected with KCC3b cRNA
# T2 sequence (Q9UHW9 1-1099 isoform Q9UHW9-2): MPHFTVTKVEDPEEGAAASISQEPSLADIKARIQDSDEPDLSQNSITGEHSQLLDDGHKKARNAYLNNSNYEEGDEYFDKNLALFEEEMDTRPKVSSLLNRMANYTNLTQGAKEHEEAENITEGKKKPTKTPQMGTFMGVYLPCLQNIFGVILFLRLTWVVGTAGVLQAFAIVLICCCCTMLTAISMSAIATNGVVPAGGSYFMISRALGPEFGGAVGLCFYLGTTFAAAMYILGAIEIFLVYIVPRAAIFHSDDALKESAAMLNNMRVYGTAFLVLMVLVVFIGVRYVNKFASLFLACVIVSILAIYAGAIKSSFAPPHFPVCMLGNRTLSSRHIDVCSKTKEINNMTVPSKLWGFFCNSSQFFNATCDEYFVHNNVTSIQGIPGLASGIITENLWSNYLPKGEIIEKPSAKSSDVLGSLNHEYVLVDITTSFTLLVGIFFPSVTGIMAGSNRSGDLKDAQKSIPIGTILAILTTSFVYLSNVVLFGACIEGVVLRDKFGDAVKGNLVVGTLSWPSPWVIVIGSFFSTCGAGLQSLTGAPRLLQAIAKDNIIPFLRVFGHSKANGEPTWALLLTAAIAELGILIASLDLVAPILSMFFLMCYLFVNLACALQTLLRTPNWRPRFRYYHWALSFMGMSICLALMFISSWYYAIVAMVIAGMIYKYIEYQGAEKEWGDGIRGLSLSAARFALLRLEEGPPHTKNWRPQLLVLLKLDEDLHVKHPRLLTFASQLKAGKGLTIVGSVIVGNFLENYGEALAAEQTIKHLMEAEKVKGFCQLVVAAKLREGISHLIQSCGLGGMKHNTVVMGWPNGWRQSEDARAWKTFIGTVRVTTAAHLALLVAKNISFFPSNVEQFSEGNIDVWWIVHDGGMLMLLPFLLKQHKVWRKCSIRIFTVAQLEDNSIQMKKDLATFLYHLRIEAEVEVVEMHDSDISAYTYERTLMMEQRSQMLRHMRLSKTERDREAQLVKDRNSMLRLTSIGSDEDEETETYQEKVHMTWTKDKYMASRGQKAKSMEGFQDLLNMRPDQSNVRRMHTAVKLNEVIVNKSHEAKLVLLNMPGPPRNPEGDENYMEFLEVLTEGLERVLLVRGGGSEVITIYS
# Experimental: Open bars, uptake assays performed in a control medium containing 10 mM K^+and 50 mM Cl^−; hatched bars, uptake assays performed in medium lacking Cl^−; bars with horizontal stripes, uptake assays performed in the presence of 100 nM calyculin A; black bars, uptake assays performed in the presence of okadaic acid; gray bars, uptake assays performed in the presence of cypermetrin.
# [1] = molecular target: mKCC4 mutant C256A/C469N/C565A/C647M/C633S (Mus musculus, UniProt Q9WVL3, C257A/C469N/C565A/C633S/C647M)
# Experimental: (§1) Mercury is known to inhibit several transporters via interaction with transmembrane or juxtamembrane cysteines (Kuwahara et al. (1997) Biochemistry 36:13973–13978; Jacoby (1999) Am J Physiol 277:C684–692). Given the inhibition of the KCCs by millimolar NEM at room temperature, presumed due to alkylation of cysteine residues (Mercado et al. (2000) J Biol Chem 275:30326–3034), the differential response of the KCCs to 50 μM mercury (Hg—Cl2) was examined. […] Of note, a cysteine residue in TM11 of NKCC1 is involved in the response of Na^+—K^+-2Cl^− cotransport to mercury (Jacoby (1999) Am J Physiol 277:C684–692).
# [2] = molecular target: mKCC4 mutant C256A/C469N/C565A/C647M (Mus musculus, UniProt Q9WVL3, C257A/C469N/C565A/C647M)
# Experimental: as §1
# mKCC4 mutant C256A/C469N/C565A/C647M, sequence (Q9WVL3 whole entry C257A/C469N/C565A/C647M): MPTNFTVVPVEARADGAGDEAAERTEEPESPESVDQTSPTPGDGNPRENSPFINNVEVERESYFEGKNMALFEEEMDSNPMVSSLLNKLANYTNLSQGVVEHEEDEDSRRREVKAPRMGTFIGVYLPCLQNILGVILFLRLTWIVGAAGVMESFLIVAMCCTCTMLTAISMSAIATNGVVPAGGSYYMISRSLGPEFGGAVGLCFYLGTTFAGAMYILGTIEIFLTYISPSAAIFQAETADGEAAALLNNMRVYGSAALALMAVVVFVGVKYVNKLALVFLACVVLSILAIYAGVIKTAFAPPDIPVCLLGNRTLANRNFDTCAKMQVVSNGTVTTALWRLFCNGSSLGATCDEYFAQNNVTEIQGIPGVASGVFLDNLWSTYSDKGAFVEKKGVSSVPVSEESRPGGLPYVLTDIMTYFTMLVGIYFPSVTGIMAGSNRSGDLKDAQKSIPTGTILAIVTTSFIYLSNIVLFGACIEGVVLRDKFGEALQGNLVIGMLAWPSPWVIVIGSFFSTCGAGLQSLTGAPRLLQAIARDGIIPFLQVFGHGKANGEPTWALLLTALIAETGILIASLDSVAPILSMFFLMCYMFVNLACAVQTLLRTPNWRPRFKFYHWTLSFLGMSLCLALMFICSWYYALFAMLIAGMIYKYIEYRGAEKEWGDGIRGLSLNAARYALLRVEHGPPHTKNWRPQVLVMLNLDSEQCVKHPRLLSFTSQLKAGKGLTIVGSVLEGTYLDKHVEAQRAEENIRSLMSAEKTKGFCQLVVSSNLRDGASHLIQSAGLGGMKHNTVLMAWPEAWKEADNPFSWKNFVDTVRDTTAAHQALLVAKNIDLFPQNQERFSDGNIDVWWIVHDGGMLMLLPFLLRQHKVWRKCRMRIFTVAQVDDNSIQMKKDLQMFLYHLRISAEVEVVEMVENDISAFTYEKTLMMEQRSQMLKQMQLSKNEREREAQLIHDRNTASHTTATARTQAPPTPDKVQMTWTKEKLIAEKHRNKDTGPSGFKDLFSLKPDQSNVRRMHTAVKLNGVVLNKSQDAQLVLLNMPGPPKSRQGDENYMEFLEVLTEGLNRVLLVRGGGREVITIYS
# mKCC4 mutant C256A/C469N/C565A/C647M/C633S, sequence (Q9WVL3 whole entry C257A/C469N/C565A/C633S/C647M): as the sequence (Q9WVL3 whole entry C257A/C469N/C565A/C647M) above, with C633S counted along it
compound,measurement,setting,value
Cl [Chloride],Km,rat KCC2,> 50 mM
COC[C@@H]([C@H](O)[C@H](O)C(=O)NCC[C@H](C)c1nc(/C=C/C[C@@H]2O[C@]3(C[C@@H](O)[C@@H]2C)O[C@H]([C@H](C[C@H](O)[C@H](C)[C@H](O)[C@H](C)/C=C(C)/C(C)=C/C=C/C(C)=C\C#N)OC)[C@H](OP(=O)(O)O)C3(C)C)co1)N(C)C [calyculin A],hKCC3b-mediated K+-Cl- cotransport in the presence of putative inhibitors,hKCC3b,blocked
HgCl2 [Hg—Cl2],response of quintuple mutant mKCC4 to HgCl2,[1],resistant
same,response of quadruple mutant mKCC4 to HgCl2,[2],weakly sensitive

# Reference: US7183075B2, “Purified and isolated potassium-chloride cotransporter nucleic acids and polypeptides and therapeutic and screening methods using same” (Vanderbilt University, priority 2000, dated 2007)
